Experimental data reported in patent US20200197409A1, “HEPATITIS B VIRUS SURFACE ANTIGEN INHIBITOR” (FUJIAN COSUNTER PHARMACEUTICAL CO., LTD., priority 2017, published 2020).

How the values were obtained:
[1] = test system: HBV; experiment: In vivo pharmacodynamic study of hydrodynamic injection mouse HBV model (HDI-HBV) via tail vein; design: species or system Balb/c mice; settings: mouse plasma
Procedure: Anti-hepatitis B virus activity of the compound of the embodiment in vivo was evaluated by HDI mice model.
Balb/c mice, 10% HP—F-CD as vehicle, test compound, RG7834, ETV (Entecavir), pAAV2-HBV 1.3mer plasmid (extracted with Qiagen EndoFree Plasmid Giga kit), main reagents including QIAamp96 DNA kit and FasStart Universal Probe Mast (ROX). The main instruments used in this experiment included centrifuge (Beckman Allegra X-15R), tissue grinder (QIAGEN-Tissue lyser II) and spectrophotometer (Thermo-NANODROP 1000).
b) On day 0, all mice were subjected to hydrodynamic injection with HBV plasmid DNA solution via tail vein. The plasmid DNA was pre-treated with sterile physiological saline before injection and stored at 4° C. until use. Plasmid DNA solution was injected via the tail vein at a dose of 8% of the body weight of the mouse within 5 seconds.
c) On the 1st day to the 7th day, the mice were administered with the compound or solvent by oral gavage for 7 days.
d) On the 1st day, 3rd day and 5th day, the blood was collected from the submandibular vein of the mice, and heparin sodium was used as an anticoagulant. The blood sample was centrifuged at 7,000×g, 4° C. to prepare the plasma for the determination of HBV DNA.
e) On the 7^h day, all mice were euthanized by CO2. The blood was collected from the heart to prepare plasma, and the liver tissue was collected. Two left hepatic lobe were isolated, the size of which was 70-100 mg, and were frozen by liquid nitrogen immediately after collection. One of the hepatic lobe was used for HBV DNA detection, and the other was used for backup.
The content of HBsAg in the serum of the mice was determined by ELISA (enzyme linked immunosorbent assay). The experimental procedure refers to the specification of HBsAg ELISA kit.
The inhibitory activity of the test compound on HBV replication on the mouse HDI model was determined by measuring the content of HBsAg in the plasma of the mice.

[2] = test system: hepatitis B; settings: woodchuck model, RG7834 as a single drug; cited from earlier work
[3] = 14-day pre-toxicology tolerance test on rat; type: in vivo; settings: once a day for 14 days, male rats
Procedure: [table] A total of 21 animals in this experiment were randomly divided into 7 groups. The animals were orally administered with the test compounds once a day for 14 consecutive days, and the toxicity was evaluated. Animal necropsy and tissue would be taken from the fixative, repaired, dehydrated, embedded, sectioned, stained and microscopically examined. These tissues included the liver, heart and lung of all animals, and spleen, stomach, duodenum, jejunum, ileum, and kidney of partial animals.

[4] = test system: HBV; experiment: Anti-HBV activity on the hepatitis B virus mouse model (AAV-HBV); type: in vivo, C57BL/6 mice; settings: 10 mg/kg, PO
Procedure: The AAV vector-mediated HBV infected mouse model is a fast and efficient HBV model. Using the high hepatotropism of the AAV vector, the recombinant adeno-associated type 8 virus carrying 1.3 copies of the HBV genome (rAAV8-1.3HBV) is injected into the tail vein of mice, which can efficiently introduce the carried 1.3 copy HBV genome into hepatocytes. Due to the characteristics of the AAV viral vector, the vector mediated by it can express for a long time. The AAV/HBV model can continuously replicate HBV DNA and express HBsAg and HBeAg in the liver of the mice.
The anti-HBV efficacy of the test compound in vivo was evaluated by determining the content of HBsAg in the serum of the mice after treatment with the test compound on AAV/HBV mouse mode.
C57BL/6 mice, 10% HP-f-CD as vehicle, reference compound TDF (Tenofovir), test compound, recombinant virus rAAVS-1.3HBV, main reagents of the experiment including QIAamp96 DNA kit and TaqMan® Universal PCR Master Mix, Hepatitis B Virus Surface Antigen Detection Kit, instruments including: centrifuge (Beckman Allegra X-15R), tissue grinder (QIAGEN-Tissue lyser II) and spectrophotometer (Thermo-NANODROP 1000).
a) All mice were orally administered on the 28th day after the virus injection, and the day was set as day 0. Submaxillary blood of all mice was collected for serum collection before administration. The mice were administered once a day for four weeks.
b) Submaxillary blood of all mice was collected for serum collection twice a week, the volume of the blood collected each time was approximately 100 μL.
c) On the 28th day, all mice were euthanized and the blood was collected from the heart for serum collection.
The content of HBsAg in the serum of the mice was determined by ELISA. The experimental procedure refers to the specification of HBsAg ELISA kit.
a) The anti-HBV activity of the test compound on AAV/HBV mice model was evaluated by determining the content of HBsAg in the plasma of the mice.

## COCCCOc1cc2c(cc1OC)-c1cc(=O)c(C(=O)O)cn1[C@H](C(C)C)C2 [RG7834, reference compound]
[1]; dosing time day 1, 30 mg/kg QD gavage
  Log HBsAg (IU/mL) (Ave. value): 3.75 IU/mL
[1]; dosing time day 3, 30 mg/kg QD gavage
  Log HBsAg (IU/mL) (Ave. value): 4.08 IU/mL
[1]; dosing time day 5, 30 mg/kg QD gavage
  Log HBsAg (IU/mL) (Ave. value): 3.59 IU/mL
[1]; dosing time day 7, 30 mg/kg QD gavage
  Log HBsAg (IU/mL) (Ave. value): 1.10 IU/mL
[2]
  reduction of HBV-DNA: 1.7 Log
  reduction of surface antigens: 2.57 Log
[3]; high dose group (1000 mg/kg)
  histopathological changes associated with the test compound: mild myocardial degeneration in the heart, mild degeneration of central hepatic cells in the small lobules of the liver, mild decrease of white pulp lymphocytes in the spleen, and moderate acute inflammation of the duodenal mucosa
[3]; medium and low dose groups (300 and 100 mg/kg), heart, liver and lung examined
  histopathological changes associated with the test compound: no histopathological changes associated with the test compound were observed
[4]; day 4
  HBsAg content in the plasma of the mice: 3.54 IU/mL
[4]; day 7
  HBsAg content in the plasma of the mice: 3.58 IU/mL
[4]; day 11
  HBsAg content in the plasma of the mice: 3.70 IU/mL
[4]; day 14
  HBsAg content in the plasma of the mice: 3.49 IU/mL
[4]; day 18
  HBsAg content in the plasma of the mice: 3.70 IU/mL
[4]; day 21
  HBsAg content in the plasma of the mice: 3.52 IU/mL
[4]; day 25
  HBsAg content in the plasma of the mice: 3.50 IU/mL
[4]; day 28
  HBsAg content in the plasma of the mice: 3.66 IU/mL
[4]; day −1
  HBsAg content in the plasma of the mice: 4.56 IU/mL
